Measurements: patent EP4631931A1, “HDAC INHIBITOR AND USE THEREOF” (Wigen Biomedicine Technology (Shanghai) Co., Ltd., priority 2022, dated 2024)

Columns and labels:
[1] = system: Mouse colon cancer CT-26 cells; experiment: In vivo efficacy in CT-26 model; parameters: species or system BALB/c mice; details: small molecules 15mg/kg PO QD, PD-1 1mg/kg IV QW, BDO 2mg/kg IP QW, 21 days; for TGI(%): 6 mice per group
Description: Female BALB/c mice (aged 6 weeks, 18-22 g) were provided by Vital River Laboratory Animal Technology Co., Ltd. (China) and used one week after quarantine and acclimation. All animals were kept in a room at 23±2 °C with a relative humidity of 50±5%, artificial lighting was provided from 08:00 to 20:00 every day, and the air was exchanged 13-18 times per hour. Mouse colon cancer CT-26 cells were cultured conventionally in 1640 medium containing 10% fetal bovine serum in an incubator at 37 °C with 5% CO2. After being subcultured, the cells were collected when they reached the desired amount. The BALB/c mice were subcutaneously injected with 2 × 10^5 CT-26 cells on the right side to form tumors. After the tumors grew to about 100 mm^3, the animals were randomly grouped for administration. Tumor volumes were measured with a caliper on day 3, day 7, day 10, day 14, day 17, and day 21 after the administration. […] The toxicity of the compounds was evaluated according to the body weight and state of the mice.
Table 16. In vivo efficacy of some of the compounds of the present disclosure in CT-26 model

OVCAR 3 cells = experiment: NK cell-mediated tumor cell killing (NK92 cells, GFP count); type: cell-based; details: Homo sapiens, 72 h compound, 1-4 h co-culture, compared to DMSO group, read-out: EC50 in promoting the NK92 cell-mediated OVCAR 3 cell death
Description: OVCAR 3 cells […] expressing GFP were seeded into a 96-well plate at 4000 cells/well. After overnight adherence culture, the serially diluted compounds were added, and the plate was incubated for another 72 h. After the two types of cells were mixed and cultured for another 1-4 h, NK92 cells were removed by washing with PBS, and adherent GFP-positive tumor cells were counted. The EC50 of the compounds in promoting the NK92 cell-mediated OVCAR 3 cell death was calculated compared to the DMSO group. Table 11. NK cell-mediated tumor cell killing by compounds of the present disclosure

293T cell = experiment: Inhibition of 293T cell proliferation (CTG, intracellular ATP); type: cell-based; details: Homo sapiens, HEK-293T, 72 h, compared to DMSO group, read-out: Inhibitory activity against 293T cell proliferation (IC50)
Description: Jurkat or 293T cells were seeded into a 96-well plate at 3000 cells/well. After overnight adherence culture, the serially diluted compound in DMSO was added. After 72 h, the intracellular ATP level was determined by CTG. The IC50 for the inhibition of cell proliferation by the compounds was calculated compared to the DMSO group. Table 8. Inhibitory activity of compounds of the present disclosure against Jurkat/293T cell proliferation (IC50, µM)

[2] = Stability in liver microsomes; type: in vitro ADME; details: 1 µM compound, NADPH, 37 °C
Description: After the 1 µM compound was incubated with 0.5 mg/mL of human or mouse liver microsomes and an NADPH regeneration system at 37 °C for different times, respectively, LC-MS-MS was used to analyze the remaining amount of the compound and calculate T1/2. Table 12. Evaluation results of stability of compounds of the present disclosure in human and mouse liver microsomes

[3] = Pharmacokinetic experiment in rats; type: in vivo; details: female, rat, plasma
Description: Healthy female rats aged 6 to 8 weeks were intravenously administered and orally administered at doses of 1 mg/kg and 10 mg/kg. The rats were fasted overnight before the administration.
On the day of the experiment, animals in the intravenous group were given the corresponding compound by single injection via the tail vein at an administration volume of 10 mL/kg; and animals in the oral group were given the corresponding compound by single intragastric injection at an administration volume of 10 mL/kg. The sample collection time points were 0.083 h, 0.167 h, 0.5 h, 1 h, 2 h, 4 h, 8 h, and 24 h. About 200 µL of whole blood was collected through the neck at each time point and used to prepare plasma for concentration determination by high-performance liquid chromatography-tandem mass spectrometry (LC-MS/MS). The plasma concentrations were processed using a non-compartmental model of Winnolin pharmacokinetic software, and the pharmacokinetic parameters were calculated using a linear-log trapezoidal method. Table 14. Results of in vivo pharmacokinetic evaluation of compounds

[4] = Metabolite identification in liver microsomes and hepatocytes from various species; type: in vitro ADME; details: 10 µM compound, 1.0 mg/mL liver microsomes, 37 °C, 120 min; mouse, rat, dog, monkey, human
Description: After the 10 µM compound was separately incubated with 1.0 mg/mL liver microsomes or hepatocytes (from 5 species: mouse, rat, dog, monkey, and human), and an NADPH regeneration system at 37 °C for 120 min, a stop solution was added to terminate the reaction, and the incubated samples were removed from the water bath. After the reaction was terminated, the samples were vortexed and then centrifuged at 4 °C and 3260× g for 15 min. After centrifugation, all the supernatants were transferred to a 96-well plate for direct use in LC-MS analysis, or subjected to dilution or concentration and reconstitution prior to injection. An LC-UV-HRMSn (n = 1-2) analytical method was established on LC-UV-HRMSn, and data acquisition was performed using SCIEX OS software. The parent drug and the metabolites could be analyzed by mass spectrometry with different scanning modes (MS/MS or IDA) and ultraviolet full-wavelength scanning (λ = 190-500 nm). By comparing the ultraviolet and mass spectra of the post-incubation samples with those of blank samples from the same species, potential metabolites were identified. The possible structures of the metabolites were inferred by comparative analysis of the collision-induced dissociation (CID) fragments of the test compounds and their metabolites. The metabolites and their relative abundances were summarized in a table for interspecies comparison.

[5] = Human liver microsomes 0.5 mg/mL
[6] = Mouse liver microsomes 0.5 mg/mL
[7] = Injection (1 mg/kg), intravenous

| Compound | Change in body weight [1] | TGI(%) [1] [%] | EC50 (OVCAR 3 cells) [nM] | IC50 (293T cell) [nM] | CLint scaled at 1 µM [2, 5] [mL/min/kg] | Clliver [2, 5] [mL/min/kg] | half-life at 1 µM [2, 5] [h] | CLint scaled at 1 µM [2, 6] [mL/min/kg] | Clliver [2, 6] [mL/min/kg] | half-life at 1 µM [2, 6] [h] | AUC(0-t) [3, 7] [ng·h/mL] | clearance [3, 7] [mL/min/kg] | half-life [3, 7] [h] | Vd ([3]; Injection (1 mg/kg), intravenous, read-out: Vdss) [L/kg] | AUC(0-t) ([3]; Oral administration (10 mg/kg)) [ng·h/mL] | Cmax ([3]; Oral administration (10 mg/kg)) [ng/mL] | Tmax ([3]; Oral administration (10 mg/kg)) [min] | bioavailability ([3]; Oral administration (10 mg/kg)) [%] | half-life ([3]; Oral administration (10 mg/kg)) [h] | metabolic pathways and stability in liver microsomes from all the species [4] |
| --- | --- | --- | --- | --- | --- | --- | --- | --- | --- | --- | --- | --- | --- | --- | --- | --- | --- | --- | --- | --- |
| Nc1cc(F)ccc1NC(=O)c1ccc(CNC(=O)/C=C/c2cccnc2)cc1 [Chidamide, reference compound] | +21.1% | 8.9 | 161 | 6710 | 20.9 | 10.41 | 1.38 | 222 | 64.04 | 0.41 |  |  |  |  |  |  |  |  |  |  |
| [2H]c1cc(C(=O)Nc2ccc(F)cc2N)ccc1CNC(=O)/C=C/c1cccnc1 [Compound 5, (E)-N-(2-amino-4-fluorophenyl)-4-((3-(pyridin-3-yl)acrylamido)methyl)-3-d benzamide] | +24.2% | 12.2 | 33.7 | > 10000 | 7.95 | 5.74 | 3.64 | 231 | 64.79 | 0.393 | 1260 | 12.9 | 6.54 | 2.42 | 5150 | 3420 | 9.6 | 40.1 | 4.01 | simple metabolic pathways and good stability in liver microsomes from all the species |
